Assay results published in patent US8334316B2, “Substituted organosulfur compounds and methods of using thereof” (ACEA Biosciences, Inc., priority 2004, dated 2012).

Assay: Acute toxicity, single intravenous injection, LD50 (Bliss method) in Kunming mice
Format: in vivo
Procedure: To evaluate the in vivo acute, intravenous toxicity of DBTS and ACEA100108 (a derivative of DBTS, see Table 33), the experiments were performed in non-tumor bearing, normal Kunming mice by monitoring the acute response of mice to a single dose of DBTS or ACEA100108 via intravenous injection (i.v.). The number of death for the treated mice was monitored and recorded. LD50 values for these compounds were calculated. Details of the study are provided below.
The experiments to test DBTS and ACEA100108 acute toxicity were performed in mice. The test mice were randomly divided into six groups (five dosing groups and one control group). Each group contained 20 Kunming strain mice, and among them, 50% were male and 50% were female. After administration of a single dose of DBTS or ACEA100108 via intravenous injection (i.v.), the acute response to DBTS or ACEA100108 compound, and the death of the treated mice during the first two weeks were monitored and recorded. The LD50 value was calculated using the Bliss method.
Materials and Method. The test chemical compound were DBTS and ACEA100108, which were dissolved into hydrogenated castor oil in the pre-warmed water bath and made as a 20 mg/ml solution. The solution was further diluted to desired experiment concentrations with the normal saline. The administration volume was 0.5 ml i.v. per mouse and the injection speed was 0.5 ml/0.5 min.
The experimental mice were Kunming strain, provided by the Experimental Animal Department, Shanghai Pharmaceutical Industry Institute. The certificate number of the facility was Animal Facility Certification Number 107. The average weight of the mice was 18-20 gram. Each test group contained 20 Kunming strain mice, and among them, 10 mice were male and 10 mice were female. […] The mice in the control group were only given the same volume of the solvent, which were diluted hydrogenated castor oil. All the testing mice were given a single intravenous injection of DBTS, ACEA100108, or the solvent that served as the control at the injection speed of 0.5 ml/0.5 min. The acute response to DBTS, ACEA100108 or the solvent immediately after the administration, as well as weight change, and the death within the first two weeks of the administration were monitored and recorded. The intravenous injection LD50 values in mice were calculated using the Bliss method.

[1] = 50% male, 50% female, 163.8 mg/kg, 20 animals
[2] = 50% male, 50% female, 204.8 mg/kg, 20 animals
[3] = 50% male, 50% female, 256 mg/kg, 20 animals
[4] = 50% male, 50% female, 320 mg/kg, 20 animals
[5] = 50% male, 50% female, 400 mg/kg, 20 animals
[6] = 50% male, 50% female, 500 mg/kg, 20 animals
[7] = Female, 163.8 mg/kg, 10 animals
[8] = Female, 204.8 mg/kg, 10 animals

Compound: Fc1ccc(CSSSCc2ccc(F)cc2)cc1 [ACEA100108, Di(p-fluorobenzyl)trisulfide]
- Dead animals on day 1 after the single intravenous injection [1]: 0
- Dead animals on day 2 after the single intravenous injection [1]: 0
- Dead animals on day 3 after the single intravenous injection [1]: 0
- Dead animals on day 4 after the single intravenous injection [1]: 0
- Dead animals on day 5 after the single intravenous injection [1]: 0
- Dead animals on day 6 after the single intravenous injection [1]: 0
- Dead animals on day 7 after the single intravenous injection [1]: 0
- Dead animals on day 8 after the single intravenous injection [1]: 0
- Dead animals on day 9 after the single intravenous injection [1]: 0
- Dead animals on days 10-14 after the single intravenous injection [1]: 0 - - - 0
- Percentage of dead animals [1]: 0%
- Dead animals on day 1 after the single intravenous injection [2]: 0
- Dead animals on day 2 after the single intravenous injection [2]: 0
- Dead animals on day 3 after the single intravenous injection [2]: 1
- Dead animals on day 4 after the single intravenous injection [2]: 0
- Dead animals on day 5 after the single intravenous injection [2]: 0
- Dead animals on day 6 after the single intravenous injection [2]: 0
- Dead animals on day 7 after the single intravenous injection [2]: 0
- Dead animals on day 8 after the single intravenous injection [2]: 0
- Dead animals on day 9 after the single intravenous injection [2]: 0
- Dead animals on days 10-14 after the single intravenous injection [2]: 0 - - - 0
- Percentage of dead animals [2]: 5%
- Dead animals on day 1 after the single intravenous injection [3]: 0
- Dead animals on day 2 after the single intravenous injection [3]: 4
- Dead animals on day 3 after the single intravenous injection [3]: 0
- Dead animals on day 4 after the single intravenous injection [3]: 2
- Dead animals on day 5 after the single intravenous injection [3]: 0
- Dead animals on day 6 after the single intravenous injection [3]: 0
- Dead animals on day 7 after the single intravenous injection [3]: 0
- Dead animals on day 8 after the single intravenous injection [3]: 0
- Dead animals on day 9 after the single intravenous injection [3]: 0
- Dead animals on days 10-14 after the single intravenous injection [3]: 0 - - - 0
- Percentage of dead animals [3]: 30%
- Dead animals on day 2 after the single intravenous injection [4]: 2
- Dead animals on day 3 after the single intravenous injection [4]: 5
- Dead animals on day 4 after the single intravenous injection [4]: 2
- Dead animals on day 5 after the single intravenous injection [4]: 0
- Dead animals on day 6 after the single intravenous injection [4]: 0
- Dead animals on day 7 after the single intravenous injection [4]: 0
- Dead animals on day 8 after the single intravenous injection [4]: 0
- Dead animals on day 9 after the single intravenous injection [4]: 0
- Dead animals on days 10-14 after the single intravenous injection [4]: 0 - - - 0
- Percentage of dead animals [4]: 45%
- Dead animals on day 2 after the single intravenous injection [5]: 8
- Dead animals on day 3 after the single intravenous injection [5]: 5
- Dead animals on day 4 after the single intravenous injection [5]: 0
- Dead animals on day 5 after the single intravenous injection [5]: 2
- Dead animals on day 6 after the single intravenous injection [5]: 0
- Dead animals on day 7 after the single intravenous injection [5]: 0
- Dead animals on day 8 after the single intravenous injection [5]: 0
- Dead animals on day 9 after the single intravenous injection [5]: 0
- Dead animals on days 10-14 after the single intravenous injection [5]: 0 - - - 0
- Percentage of dead animals [5]: 75%
- Dead animals on day 1 after the single intravenous injection [6]: 20
- Dead animals on day 2 after the single intravenous injection [6]: 0
- Dead animals on day 3 after the single intravenous injection [6]: 0
- Dead animals on day 4 after the single intravenous injection [6]: 0
- Dead animals on day 5 after the single intravenous injection [6]: 0
- Dead animals on day 6 after the single intravenous injection [6]: 0
- Dead animals on day 7 after the single intravenous injection [6]: 0
- Dead animals on day 8 after the single intravenous injection [6]: 0
- Dead animals on day 9 after the single intravenous injection [6]: 0
- Dead animals on days 10-14 after the single intravenous injection [6]: 0 - - - 0
- Percentage of dead animals [6]: 100%
- Dead animals on day 1 after the single intravenous injection [7]: 0
- Dead animals on day 2 after the single intravenous injection [7]: 0
- Dead animals on day 3 after the single intravenous injection [7]: 0
- Dead animals on day 4 after the single intravenous injection [7]: 0
- Dead animals on day 5 after the single intravenous injection [7]: 0
- Dead animals on day 6 after the single intravenous injection [7]: 0
- Dead animals on day 7 after the single intravenous injection [7]: 0
- Dead animals on day 8 after the single intravenous injection [7]: 0
- Dead animals on day 9 after the single intravenous injection [7]: 0
- Dead animals on days 10-14 after the single intravenous injection [7]: 0 - - - 0
- Percentage of dead animals [7]: 0%
- Average animal weight, End (Female, 163.8 mg/kg, Beginning 19.6): 24.2
- Dead animals on day 1 after the single intravenous injection [8]: 0
- Dead animals on day 2 after the single intravenous injection [8]: 0
- Dead animals on day 3 after the single intravenous injection [8]: 0
- Dead animals on day 4 after the single intravenous injection [8]: 0
- Dead animals on day 5 after the single intravenous injection [8]: 0
- Dead animals on day 6 after the single intravenous injection [8]: 0
- Dead animals on day 7 after the single intravenous injection [8]: 0
- Dead animals on day 8 after the single intravenous injection [8]: 0
- Dead animals on day 9 after the single intravenous injection [8]: 0
- Dead animals on days 10-14 after the single intravenous injection [8]: 0 - - - 0
- Percentage of dead animals [8]: 0%
- Average animal weight, End (Female, 204.8 mg/kg, Beginning 20.5): 24.3
- Dead animals on day 1 after the single intravenous injection (Female, 256 mg/kg, 10 animals): 0
- Dead animals on day 2 after the single intravenous injection (Female, 256 mg/kg, 10 animals): 2
- Dead animals on day 3 after the single intravenous injection (Female, 256 mg/kg, 10 animals): 0
- Dead animals on day 4 after the single intravenous injection (Female, 256 mg/kg, 10 animals): 1
- Dead animals on day 5 after the single intravenous injection (Female, 256 mg/kg, 10 animals): 0
- Dead animals on day 6 after the single intravenous injection (Female, 256 mg/kg, 10 animals): 0
- Dead animals on day 7 after the single intravenous injection (Female, 256 mg/kg, 10 animals): 0
- Dead animals on day 8 after the single intravenous injection (Female, 256 mg/kg, 10 animals): 0
- Dead animals on day 9 after the single intravenous injection (Female, 256 mg/kg, 10 animals): 0
- Dead animals on days 10-14 after the single intravenous injection (Female, 256 mg/kg, 10 animals): 0 - - - 0
- Percentage of dead animals (Female, 256 mg/kg, 10 animals): 30%
- Average animal weight, End (Female, 256 mg/kg, Beginning 20.1): 24.6
- Dead animals on day 1 after the single intravenous injection (Female, 320 mg/kg, 10 animals): 2
- Dead animals on day 2 after the single intravenous injection (Female, 320 mg/kg, 10 animals): 2
- Dead animals on day 3 after the single intravenous injection (Female, 320 mg/kg, 10 animals): 1
- Dead animals on day 4 after the single intravenous injection (Female, 320 mg/kg, 10 animals): 0
- Dead animals on day 5 after the single intravenous injection (Female, 320 mg/kg, 10 animals): 0
- Dead animals on day 6 after the single intravenous injection (Female, 320 mg/kg, 10 animals): 0
- Dead animals on day 7 after the single intravenous injection (Female, 320 mg/kg, 10 animals): 0
